From US10526330B2, “JAK kinase inhibitor compounds for treatment of respiratory disease” (THERAVANCE BIOPHARMA R&D IP, LLC, priority 2015, dated 2020)
Blank lines part the entries; values can stand above or below the compound they belong to.

What was measured:
IL-13 induced pSTAT6 = experiment: Murine model of IL-13 induced pSTAT6 induction in lung tissue; assay type: in vivo; conditions: mouse lung; for lung concentration smaller than that of the corresponding compound of the invention by a factor: pharmacodynamic assay, versus Examples 1, 7, 13, 6
Description: Il-13 is an important cytokine underlying the pathophysiology of asthma (Kudlacz et al. Eur. J. Pharmacol, 2008, 582, 154-161). IL-13 binds to cell surface receptors activating members of the Janus family of kinases (JAK) which then phosphorylate STAT6 and subsequently activates further transcription pathways. In the described model, a dose of IL-13 was delivered locally into the lungs of mice to induce the phosphorylation of STAT6 (pSTAT6) which is then measured as the endpoint.
Adult balb/c mice from Harlan were used in the assay. On the day of study, animals were lightly anesthetized with isoflurane and administered either vehicle or test compound (0.5 mg/mL, 50 μL total volume over several breaths) via oral aspiration. Animals were placed in lateral recumbency post dose and monitored for full recovery from anesthesia before being returned to their home cage. Four hours later, animals were once again briefly anesthetized and challenged with either vehicle or IL-13 (0.03 μg total dose delivered, 50 μL total volume) via oral aspiration before being monitored for recovery from anesthesia and returned to their home cage. One hour after vehicle or IL-13 administration, lungs were collected for both pSTAT6 detection using an anti-pSTAT6 ELISA (rabbit mAb capture/coating antibody; mouse mAb detection/report antibody: anti-pSTAT6-pY641; secondary antibody: anti-mouse IgG-HRP) and analyzed for total drug concentration as described above in Assay 4.
Selected compounds of the invention were tested in the assay. Activity in the model is evidenced by a decrease in the level of pSTAT6 present in the lungs of treated animals at 5 hours compared to the vehicle treated, IL-13 challenged control animals. The difference between the control animals which were vehicle-treated, IL-13 challenged and the control animals which were vehicle-treated, vehicle challenged dictated the 0% and 100% inhibitory effect, respectively, in any given experiment.

[1] = tested on: IL-13 induced STAT6 phosphorylation in BEAS-2B human lung epithelial cells; experiment: AlphaScreen JAK1 cellular potency assay in BEAS-2B cells; assay type: cell-based
[2] = Pharmacokinetics in plasma and lung in mouse; assay type: in vivo; conditions: oral aspiration, lung AUC (μg hr/g) to plasma AUC (μg hr/mL)
Description: Plasma and lung levels of test compounds and ratios thereof were determined in the following manner. BALB/c mice from Charles River Laboratories were used in the assay. Test compounds were individually formulated in 20% propylene glycol in pH 4 citrate buffer at a concentration of 0.2 mg/mL and 50 uL of the dosing solution was introduced into the trachea of a mouse by oral aspiration. At various time points (typically 0.167, 2, 6, 24 hr) post dosing, blood samples were removed via cardiac puncture and intact lungs were excised from the mice. Blood samples were centrifuged (Eppendorf centrifuge, 5804R) for 4 minutes at approximately 12,000 rpm at 4° C. to collect plasma. Lungs were padded dry, weighed, and homogenized at a dilution of 1:3 in sterile water. Plasma and lung levels of test compound were determined by LC-MS analysis against analytical standards constructed into a standard curve in the test matrix. A lung to plasma ratio was determined as the ratio of the lung AUC in μg hr/g to the plasma AUC in μg hr/mL, where AUC is conventionally defined as the area under the curve of test compound concentration vs. time.

JAK1 = JAK1 (Homo sapiens (Human), UniProt P23458); experiment: LanthaScreen JAK1 biochemical assay; conditions: versus Examples 1, 7, 13, 6
JAK1, sequence (P23458 whole entry): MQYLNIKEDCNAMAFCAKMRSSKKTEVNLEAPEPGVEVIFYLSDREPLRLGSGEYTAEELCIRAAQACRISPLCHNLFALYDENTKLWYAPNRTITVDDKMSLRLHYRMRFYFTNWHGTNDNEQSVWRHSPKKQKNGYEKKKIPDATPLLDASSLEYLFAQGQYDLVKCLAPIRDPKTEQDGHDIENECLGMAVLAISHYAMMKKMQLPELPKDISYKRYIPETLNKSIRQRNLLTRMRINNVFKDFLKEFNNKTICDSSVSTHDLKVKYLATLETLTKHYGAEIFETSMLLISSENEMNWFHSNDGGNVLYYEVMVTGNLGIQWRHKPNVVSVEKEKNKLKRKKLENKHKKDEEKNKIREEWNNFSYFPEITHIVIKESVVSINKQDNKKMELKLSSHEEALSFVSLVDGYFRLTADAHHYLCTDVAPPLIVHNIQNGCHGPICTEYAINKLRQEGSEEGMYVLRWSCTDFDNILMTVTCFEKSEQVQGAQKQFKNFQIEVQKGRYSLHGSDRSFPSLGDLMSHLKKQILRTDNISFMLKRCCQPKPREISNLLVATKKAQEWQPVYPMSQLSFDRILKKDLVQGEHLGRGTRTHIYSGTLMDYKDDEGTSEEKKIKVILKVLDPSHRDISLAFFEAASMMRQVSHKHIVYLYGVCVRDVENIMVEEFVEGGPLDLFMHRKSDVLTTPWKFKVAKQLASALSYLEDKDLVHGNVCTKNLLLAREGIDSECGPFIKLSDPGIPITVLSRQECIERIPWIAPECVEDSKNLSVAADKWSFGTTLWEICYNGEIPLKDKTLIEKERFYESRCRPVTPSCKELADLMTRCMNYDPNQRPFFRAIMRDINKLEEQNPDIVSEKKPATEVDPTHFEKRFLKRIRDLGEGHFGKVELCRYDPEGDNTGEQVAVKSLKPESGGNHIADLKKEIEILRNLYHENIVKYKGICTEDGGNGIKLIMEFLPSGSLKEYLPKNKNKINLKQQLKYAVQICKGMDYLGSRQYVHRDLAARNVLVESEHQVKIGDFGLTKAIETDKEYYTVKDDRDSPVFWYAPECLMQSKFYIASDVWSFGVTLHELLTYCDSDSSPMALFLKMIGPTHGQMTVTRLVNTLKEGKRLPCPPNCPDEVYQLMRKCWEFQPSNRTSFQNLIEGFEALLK

[3] = Dynamic moisture sorption assessment; assay type: physicochemical
Description: Dynamic moisture sorption (DMS) measurement was performed using a VTI atmospheric microbalance, SGA-100 system (VTI Corp., Hialeah, Fla. 33016). A weighed sample was used and the humidity was lowest possible value (close to 0% RH) at the start of the analysis. The DMS analysis consisted of an initial drying step (˜0% RH) for 120 minutes, followed by two cycles of sorption and desorption with a scan rate of 5% RH/step over the humidity range of 5% RH to 90% RH. The DMS run was performed isothermally at 25° C.

Compound: CCc1cc(O)c(F)cc1-c1ccc2c(-c3nc4c([nH]3)CCN(C3CN(C5CCS(=O)(=O)C5)C3)C4)n[nH]c2c1 (centres unmarked) [Example 1-15]
- pSTAT6 inhibition in the pharmacodynamic assay (IL-13 induced pSTAT6): noted as exceptions

Compound: CCc1cc(O)c(F)cc1-c1ccc2c(-c3nc4c([nH]3)CCN(CCNC3(C#N)CC3)C4)n[nH]c2c1 [Example 3-1]
- pSTAT6 inhibition in the pharmacodynamic assay (IL-13 induced pSTAT6): noted as exceptions

Compound: CCc1cc(O)c(F)cc1-c1ccc2c(-c3nc4c([nH]3)CCN(CCNC3CC(OC)C3)C4)n[nH]c2c1 (centres unmarked) [Example 3-30]
- BEAS-2B pIC50 [1]: A (A represents a pIC50 value ≥8 (IC50≤10 nM))

Compound: CCc1cc(O)c(F)cc1-c1ccc2c(-c3nc4c([nH]3)CCN(CCNC3CC(OC)C3)C4)n[nH]c2c1 (centres unmarked) [Example 8, 5-Ethyl-2-fluoro-4-(3-(5-(2-((3-methoxycyclobutyl)amino)ethyl)-4,5,6,7-tetrahydro-1H-imidazo[4,5-c]pyridin-2-yl)-1H-indazol-6-yl)phenol]
- Lung to Plasma ratio Assay 4 [2]: A (A denotes a ratio >100)

Compound: CCc1cc(O)c(F)cc1-c1ccc2c(-c3nc4c([nH]3)CCN(C[C@@H]3CCCN3C)C4)n[nH]c2c1 [Example 11, (S)-5-ethyl-2-fluoro-4-(3-(5-((1-methylpyrrolidin-2-yl)methyl)-4,5,6,7-tetrahydro-1H-imidazo[4,5-c]pyridin-2-yl)-1H-indazol-6-yl)phenol]
- Lung to Plasma ratio Assay 4 [2]: A (A denotes a ratio >100)

Compound: CCc1cc(O)c(F)cc1-c1ccc2c(-c3nc4c([nH]3)CCN(C[C@H]3COCCN3)C4)n[nH]c2c1 [Example 13, (S)-5-Ethyl-2-fluoro-4-(3-(5-(morpholin-3-ylmethyl)-4,5,6,7-tetrahydro-1H-imidazo[4,5-c]pyridin-2-yl)-1H-indazol-6-yl)phenol]
- Lung to Plasma ratio Assay 4 [2]: A (A denotes a ratio >100)

Compound: CCc1cc(O)c(F)cc1-c1ccc2c(-c3nc4c([nH]3)CCN(C[C@@H]3COCCN3)C4)n[nH]c2c1 [Example 14, (R)-5-Ethyl-2-fluoro-4-(3-(5-(morpholin-3-ylmethyl)-4,5,6,7-tetrahydro-1H-imidazo[4,5-c]pyridin-2-yl)-1H-indazol-6-yl)phenol]
- Lung to Plasma ratio Assay 4 [2]: A (A denotes a ratio >100)

Compound: CCc1cc(O)c(F)cc1-c1ccc2c(-c3nc4c([nH]3)CCN(CCN3CCC[C@@H]3C)C4)n[nH]c2c1 [Example 15, (S)-5-ethyl-2-fluoro-4-(3-(5-(2-(2-methylpyrrolidin-1-yl)ethyl)-4,5,6,7-tetrahydro-1H-imidazo[4,5-c]pyridin-2-yl)-1H-indazol-6-yl)phenol]
- Lung to Plasma ratio Assay 4 [2]: A (A denotes a ratio >100)

Compound: CCc1cc(O)c(F)cc1-c1ccc2c(-c3nc4c([nH]3)CCN(C3CC(C)C3)C4)n[nH]c2c1 (centres unmarked) [Example C-1, 5-Ethyl-2-fluoro-4-(3-(5-(3-methylcyclobutyl)-4,5,6,7-tetrahydro-1H-imidazo[4,5-c]pyridin-2-yl)-1H-indazol-6-yl)phenol]
- fold less potent than the corresponding compound of the invention in the enzyme assay (JAK1): 2 fold
- lung concentration smaller than that of the corresponding compound of the invention by a factor (IL-13 induced pSTAT6): 36

Compound: CCc1cc(O)c(F)cc1-c1ccc2c(-c3nc4c([nH]3)CCN(CCC(C)C)C4)n[nH]c2c1 [Example C-2]
- fold less potent than the corresponding compound of the invention in the enzyme assay (JAK1): 3 fold
- lung concentration smaller than that of the corresponding compound of the invention by a factor (IL-13 induced pSTAT6): 52

Compound: CCc1cc(O)c(F)cc1-c1ccc2c(-c3nc4c([nH]3)CCN(CC3CCCOC3)C4)n[nH]c2c1 (centres unmarked) [Example C-3]
- fold less potent than the corresponding compound of the invention in the enzyme assay (JAK1): 6 fold
- lung concentration smaller than that of the corresponding compound of the invention by a factor (IL-13 induced pSTAT6): 13

Compound: CCc1cc(O)c(F)cc1-c1ccc2c(-c3nc4c([nH]3)CCN(C3CCC(C)CC3)C4)n[nH]c2c1 (centres unmarked) [Example C-4]
- fold less potent than the corresponding compound of the invention in the enzyme assay (JAK1): 2.5 fold
- lung concentration smaller than that of the corresponding compound of the invention by a factor (IL-13 induced pSTAT6): 23

Compound: CCc1cc(O)c(F)cc1-c1ccc2c(-c3nc4c([nH]3)CCN(C3CCN(C)CC3)C4)n[nH]c2c1 [crystalline hydrate, 5-ethyl-2-fluoro-4-(3-(5-(1-methylpiperidin-4-yl)-4,5,6,7-tetrahydro-1H-imidazo[4,5-c]pyridin-2-yl)-1H-indazol-6-yl)phenol]
- hygroscopicity [3]: non-hygroscopic
- weight gain (dynamic moisture sorption) ([3]; 5% to 90% relative humidity, 25° C.): less than 0.12%

Further lines, results first:

- Lung to Plasma ratio Assay 4 [2]: A (A denotes a ratio >100)
Compound: CCc1cc(O)c(F)cc1-c1ccc2c(-c3nc4c([nH]3)CCN(CCN(C)CC(C)C)C4)n[nH]c2c1 [Example 3-33]

- Lung to Plasma ratio Assay 4 [2]: A (A denotes a ratio >100)
Compound: CCc1cc(O)c(F)cc1-c1ccc2c(-c3nc4c([nH]3)CCN(CC3CNC3)C4)n[nH]c2c1 [Example 14-7]
